Experimental data taken from patent publication US12533386B2, “Preparation of black tea extract with high theaflavin content and use thereof” (Huanggang Normal University, priority 2022, dated 2026).

Test system: atherosclerosis in ApoE−/− (ApoE-KO) mice
Assay: Atherosclerosis mouse model (ApoE-KO, high fat diet), histological analyses
Format: in vivo
Conditions: 2.5 mg and 7.5 mg theaflavin treatment, especially high dose of 7.5 mg; versus high fat diet group
Protocol: Twenty four model male ApoE−/− (ApoE-KO) mice were fed a high fat diet for 6 weeks to develop established atherosclerosis. At 8 weeks of age, they were divided into 4 treatment groups: control, high fat diet, 2.5 mg theaflavin treatment, and 7.5 mg theaflavin treatment. 8 weeks after commencement of the study, ApoE-KO mice were anaesthetized. All animal experiments were performed in accordance with the Guidelines for the Care and Use of Laboratory Animals, Ministry of Science and Technology, China. This study was approved by the Animal Care and Scientific Committee of Huanggang Normal University, Hubei, China.

O=c1c(O)cc([C@H]2Oc3cc(O)cc(O)c3C[C@H]2O)cc2c([C@H]3Oc4cc(O)cc(O)c4C[C@H]3O)cc(O)c(O)c12 [theaflavin]
tissue damages in histology (aorta, adipose): could reverse some of the tissue damages
